Measured values taken from patent US20210213010A1, “TLR7/8 AGONISTS AND LIPOSOME COMPOSITIONS” (Torque Therapeutics, Inc., priority 2018, published 2021).
pEC50: −log10 of the molar value. Entries after “also recorded” stand apart in the source; their conditions may differ.

What was measured:
whole human blood [1] = test: IL-6 cytokine expression in stimulated whole human blood (ELISA); type: cell-based
Protocol: (§1) This example describes the general procedure used to assess the level of cytokine IL-6 and IL-12p40 expressions upon stimuli of whole human blood with small molecules or small molecules in liposomal formulations F1 and F2. 10 mM DMSO solutions of the small molecules were diluted in RPMI media (RPMI-1640, Sigma Aldrich) with 1% penicillin/streptomycin (p/s). […], of each dilution was transferred to Nunc™ 96-Well Polystyrene Conical Bottom MicroWell™ Plates in duplicates. Blood was drawn from two human donors, diluted in RPMI with 1% p/s and added to each well to reach final concentrations of 10 μM, 1 μM, and 0.1 μM of the small molecules. The plates were incubated at 37° C. in a cell incubator for 24h. The plates were then spun down in a plate centrifuge with 3200 revolutions per minute (rpm) for 10 min before 50 uL of the supernatant was transferred to new 96-well plates. The supernatant samples were subsequently stored at −80° C. until the day of cytokine measurements.
(§2) The level of cytokine expression was measured using either an IL-6 ELISA Kit (RnDSystems, cat #DY206) for IL-6, or an IL-12p40 ELISA Kit (RnDSystems, cat #DY1240) according to the manufacturer's protocols. This general procedure was used to generate the examples 24-33.

whole human blood [2] = test: IL-12p40 cytokine expression in stimulated whole human blood (ELISA); type: cell-based
Protocol: as §1, §2

[3] = Remote loading efficiency of small molecules into liposomes (PD-10 size exclusion, HPLC); type: physicochemical
Protocol: A solution of the small molecule (modified TLR agonist) was lyophilized in a vial equipped with a magnetic stir bar over night to form a fluffy white powder. This powder was added either formulation F1 or F2 to the wanted drug/lipid ratio. The resulting mixture was stirred at 55° C. or 41° C. for formulation F1 and F2 respectively for 3h, then allowed to cool to rt before the solutions were refrigerated and stored at 4° C.
Remote loading efficiency was determined at 1 h and 3 h by taking out 100 μL of the mixture and applying this and 900 μL buffer (25 mM HEPES, 10 vol % sucrose buffer, pH 7.4) to a PD-10 column size exclusion column. Following, 10×1 mL fractions were collected, and the small molecule compound concentrations in the loading mixture and in the liposome containing fractions were determined on analytical HPLC. Loading efficiency was calculated as percentage of molecules found in liposome containing fractions out of the applied amount. The general procedure for the small molecule remote loading is visualized in FIG. 3. The general concept of remote loading imidazoquinolines in liposomes that are dialyzed against HEPES is visualized in FIG. 4.

RAW-Blue cells = test: NF-κB induction in RAW-Blue reporter cells (RAW 264.7 macrophages, SEAP); type: cell-based; details: for pEC50: RAW-Blue, sigmoidal 4PL fitting, 24 h
Text: This example describes the general procedure used to assess the compounds' potency to induce NF-κB expression in RAW 264.7 macrophages cells that stably express secreted embryonic alkaline phosphatase (SEAP) upon induction of NF-κB. RAW-Blue™ reporter cells are commonly used for quantifying TLR7/8 agonist potencies in reporter cell assays. Conversely, we used RAW-Blue™ cells to evaluate the potencies of the synthesized derivatives, as previously reported^1. ^1 Ryu et al, J. Am. Chem. Soc. (2014), 136, 10823-10825
RAW 264.7 assays were carried out using RAW-Blue™ cells and QUANTI-Blue™ detection solution (Invivogen, Toulouse, France, at. #raw-sp and rep-qbs respectively). The assays carried out according to the protocol from Invivogen. RAW 264.7 macrophages were cultured in DMEM high glucose (4.5 g/L) supplemented with 10% (v/v) FBS, 1% (v/v) P/S, and Normocin™ (100 μg/ml). On the day of the study, the cells were seeded in a 96-well plate (ThermoFisher Scientific, Roskilde, Denmark) with 20 μL TLR7/8 agonist solutions per well at varying concentrations by adding 180 μL cell suspension, made by suspending cells to 0.55×10^6 cells per mL in the prepared cell medium added Zeocin™ (200 μg/ml), leading to a final concentration of 100×10^3 cells per well in triplicates. Cells were incubated with the TLR7/8 agonists, diluted from 10 mM DMSO stocks in PBS, at 37° C. with 5% CO2 for 24 h for SEAP production. 50 μL SEAP containing cell supernatant from each well was added 150 μL QUANTI-Blue™ detection solution and was incubated at 37° C. for 3-6 h. The resulting response was quantified spectrophotometrically at 640 nm and was normalized to the signal from a blank sample (DMSO dilution) run in parallel.
Half maximal effective concentration (EC50) values were determined from sigmoidal 4PL fittings from the resulting dose-response curves in GraphPad Prism.

[4] = free small molecule, 10, 1, 0.1 μM, 24 h, two donors
[5] = remote loaded in formulation F1, HEPES, drug/lipid ratio 0.1
[6] = remote loaded in formulation F2, HEPES, drug/lipid ratio 0.1
[7] = formulation F1, HEPES, drug/lipid ratio 0.10, 1 h
[8] = formulation F1, HEPES, drug/lipid ratio 0.10, 3 h
[9] = formulation F2, HEPES, drug/lipid ratio 0.10, 1 h
[10] = formulation F2, HEPES, drug/lipid ratio 0.10, 3 h

Row | SMILES | Remote loading efficiency 1 h (%) [3, 7] [%] | Remote loading efficiency 3 h (%) [3, 8] [%] | Remote loading efficiency 1 h (%) [3, 9] [%] | Remote loading efficiency 3 h (%) [3, 10] [%] | pEC50 (RAW-Blue cells) | Expression of IL-6 upon stimulation of whole human blood (whole human blood [1]; [4]) | Expression of IL-6 upon stimulation of whole human blood (whole human blood [1]; [5]) | Expression of IL-6 upon stimulation of whole human blood (whole human blood [1]; [6]) | Expression of IL-12p40 upon stimulation of whole human blood (whole human blood [2]; [4]) | Expression of IL-12p40 upon stimulation of whole human blood (whole human blood [2]; [5]) | Expression of IL-12p40 upon stimulation of whole human blood (whole human blood [2]; [6]) | further results
1 | CCOCc1nc2c(N)nc3ccccc3c2n1CCNC(=O)[C@@H](N)CCSC [MK093, (S)-2-amino-N-(2-(4-amino-2-(ethoxymethyl)-1H-imidazo[4,5-c]quinolin-1-yl)ethyl)-4-(methylthio)butanamide] | – | – | – | – | – | induced expression of IL-6 at 10 μM in donor 2 | – | – | induced expression of IL-12p40 at 10 μM in donor 2 | – | – | –
2 | CCOCc1nc2c(N)nc3ccccc3c2n1CCNC(=O)C(C)(C)N [MK090, 2-amino-N-(2-(4-amino-2-(ethoxymethyl)-1H-imidazo[4,5-c]quinolin-1-yl)ethyl)-2-methylpropanamide] | – | – | – | – | – | induced expression of IL-6 at 10 μM in donor 2; also recorded: able to induce expression of IL-6 in both donors; also recorded: the most potent inducer of IL-6 | – | – | induced expression of IL-12p40 at 10 μM in donor 2 | – | – | –
3 | CCOCc1nc2c(N)nc3ccccc3c2n1CCNC(=O)[C@@H](N)C(C)C [MK089, (S)-2-amino-N-(2-(4-amino-2-(ethoxymethyl)-1H-imidazo[4,5-c]quinolin-1-yl)ethyl)-3-methylbutanamide] | 122 | 128 | 100 | 104 | – | induced expression of IL-6 at 10 μM in donor 2 | No induction of IL-6 expression | capable of inducing expression of IL-6 at 10 μM; also recorded: capable of inducing expression of IL-6 in both donors | – | none of the small molecules Gardiquimod, MK087, MK088, and MK089 were capable of inducing expression of IL-12p40 | capable of inducing expression of IL-12p40 in one donor at 10 μM | –
4 | CCOCc1nc2c(N)nc3ccccc3c2n1CCNC(=O)[C@@H](N)CC(C)C [MK091, (S)-2-amino-N-(2-(4-amino-2-(ethoxymethyl)-1H-imidazo[4,5-c]quinolin-1-yl)ethyl)-4-methylpentanamide] | – | – | – | – | – | induced expression of IL-6 at 10 μM in donor 2 | – | – | induced expression of IL-12p40 at 10 μM in donor 2 | – | – | –
5 | CCOCc1nc2c(N)nc3ccccc3c2n1CCNC(=O)CN [MK087, 2-amino-N-(2-(4-amino-2-(ethoxymethyl)-1H-imidazo[4,5-c]quinolin-1-yl)ethyl)acetamide] | 72 | 73 | 52 | 60 | – | – | capable of inducing expression of IL-6 at 10 μM | capable of inducing expression of IL-6 at 10 μM; also recorded: not capable of inducing expression of IL-6 in donor 1 | – | none of the small molecules Gardiquimod, MK087, MK088, and MK089 were capable of inducing expression of IL-12p40 | not capable of inducing expression of IL-12p40 | –
6 | CCCCc1nc2c(N)nc3ccccc3c2n1Cc1ccc(CNC(=O)CC)cc1 [MK148, N-(4-((4-amino-2-butyl-1H-imidazo[4,5-c]quinolin-1-yl)methyl)benzyl)propionamide] | – | – | – | – | 7.30 | – | – | – | – | – | – | Potency in the RAW-Blue cell assay (RAW-Blue cells; compared with R848): greater potencies than R848

Further lines, with some results ahead:

Row | Remote loading efficiency 1 h (%) [3, 7] [%] | Remote loading efficiency 3 h (%) [3, 8] [%] | Remote loading efficiency 1 h (%) [3, 9] [%] | Remote loading efficiency 3 h (%) [3, 10] [%] | pEC50 (RAW-Blue cells) | SMILES | Expression of IL-6 upon stimulation of whole human blood (whole human blood [1]; [4]) | Expression of IL-6 upon stimulation of whole human blood (whole human blood [1]; [5]) | Expression of IL-6 upon stimulation of whole human blood (whole human blood [1]; [6]) | Expression of IL-12p40 upon stimulation of whole human blood (whole human blood [2]; [4]) | Expression of IL-12p40 upon stimulation of whole human blood (whole human blood [2]; [5]) | Expression of IL-12p40 upon stimulation of whole human blood (whole human blood [2]; [6]) | further results
7 | 110 | 115 | 95 | 95 | – | CCOCc1nc2c(N)nc3ccccc3c2n1CCNC(=O)[C@H](C)N [MK088, (S)-2-amino-N-(2-(4-amino-2-(ethoxymethyl)-1H-imidazo[4,5-c]quinolin-1-yl)ethyl)propanamide] | induced expression of IL-6 at 10 μM in donor 2 | capable of inducing expression of IL-6 at 10 μM | capable of inducing expression of IL-6 at 10 μM; also recorded: not capable of inducing expression of IL-6 in donor 1 | induced expression of IL-12p40 at 10 μM in donor 2; also recorded: the most potent inducer of IL-12p40 | none of the small molecules Gardiquimod, MK087, MK088, and MK089 were capable of inducing expression of IL-12p40 | capable of inducing expression of IL-12p40 in one donor at 10 μM | –
8 | – | – | – | – | 6.92 | CCCCc1nc2c(N)nc3ccccc3c2n1Cc1ccc(CNC(C)=O)cc1 [MK132, N-(4-((4-amino-2-butyl-1H-imidazo[4,5-c]quinolin-1-yl)methyl)benzyl)acetamide] | – | – | – | – | – | – | –
9 | – | – | – | – | 6.89 | CCCCc1nc2c(N)nc3ccccc3c2n1Cc1ccc(CNC(=O)[C@@H](N)Cc2ccc(O)cc2)cc1 [MK141, (S)-2-amino-N-(4-((4-amino-2-butyl-1H-imidazo[4,5-c]quinolin-1-yl)methyl)benzyl)-3-(4-hydroxyphenyl)propanamide] | – | – | – | – | – | – | Remote loading efficiency 1 h (%) ([3]; formulation F3, drug/lipid ratio 0.10, 1 h, mean (SD), n = 2): 83.8 (3.0) %; Remote loading efficiency 3 h (%) ([3]; formulation F3, drug/lipid ratio 0.10, 3 h, mean (SD), n = 2): 81.2 (2.1) %
